Assay results: US20200085791A1, “[(PHENYLSULFONYL)OCTAHYDRO-EPIMINOISOINDOL-YL](1H-1,2,3-TRIAZOL-5-YL)METHANONES” (Bayer Pharma Aktiengesellschaft, priority 2016, published 2020)

Target: T1, recombinant human AKR1C3 (Aldo-keto reductase family 1 member C3) (Homo sapiens, UniProt P42330)
T1 construct: GST (cleaved yes); made in house; host or cells: E. coli
T1 sequence (P42330 1-323): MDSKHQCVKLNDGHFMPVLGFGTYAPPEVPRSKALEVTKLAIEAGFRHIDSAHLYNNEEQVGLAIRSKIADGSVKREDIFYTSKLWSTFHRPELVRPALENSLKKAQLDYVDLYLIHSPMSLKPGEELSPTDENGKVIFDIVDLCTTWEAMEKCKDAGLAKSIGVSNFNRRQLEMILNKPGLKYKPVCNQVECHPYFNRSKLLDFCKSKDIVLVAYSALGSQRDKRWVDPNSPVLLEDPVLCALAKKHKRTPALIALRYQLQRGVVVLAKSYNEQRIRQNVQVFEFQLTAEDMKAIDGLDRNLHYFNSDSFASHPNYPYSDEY
Assay: In Vitro Assay 1: AKR1C3-inhibitory activity (Coumberone to Coumberol fluorescence assay)
Format: biochemical
Settings: recombinant enzyme, Coumberone 0.3 μM, NADPH 10 μM, 15 min pre-incubation, 4-parameter fit; average or median values
Description: In Vitro Assay 1: AKR1C3-Inhibitory Activity
The AKR1C3-inhibitory activity of the substances of the present invention was measured in the AKR1C3 assay described in the paragraphs below.
Essentially, the enzyme activity is measured by quantification of the Coumberol from Coumberone (Halim, M., Yee, D. J., and Sames, D., J. AM. CHEM. SOC. 130, 14123-14128 (2008) and Yee, D. J., Balsanek, V., Bauman, D. R., Penning, T. M., and Sames, D., Proc. Natl. Acad. Sci. USA 103, 13304-13309 (2006)). In this test, the increase of the highly fluorescent Coumberol by NADPH- (nicotinamide adenine dinucleotide phosphate)-dependent reduction of the non-fluorescent Coumberone by AKR1C3 can be determined.
The enzyme used was recombinant human AKR1C3 (Aldo-keto reductase family 1 member C3) (GenBank Accession No. NM_003739). This was expressed in E. coli as GST (glutathione S transferase) fusion protein and purified by glutathione Sepharose affinity chromatography. The GST was removed by digestion with thrombin and subsequent size exclusion chromatography (Dufort, I., Rheault, P., Huang, X F., Soucy, P., and Luu-The, V., Endocrinology 140, 568-574 (1999)).
For the assay, 50 nl of a 100-fold concentrated solution of the test substance in DMSO were pipetted into a black low-volume 384-well microtiter plate (Greiner Bio-One, Frickenhausen, Germany), 2.5 μl of a solution of AKR1C3 in assay buffer [50 mM potassium phosphate buffer pH 7, 1 mM DTT, 0.0022% (w/v) Pluronic F-127, 0.01% BSA (w/v) and protease inhibitor cocktail (Complete, EDTA-free Protease Inhibitor Cocktail from Roche)] were added and the mixture was incubated for 15 min to allow pre-binding of the substances to the enzyme prior to the enzyme reaction. The enzyme reaction was then started by addition of 2.5 μl of a solution of NADPH (20 μM→final concentration in 5 μl of assay volume is 10 μM) and Coumberone (0.6 μM→final concentration in 5 μl of assay volume is 0.3 μM) in assay buffer, and the resulting mixture was incubated at […] for the reaction time of typically 90 min. The concentration of the AKR1C3 and the reaction time was adapted to the respective activity of the enzyme preparation and adjusted such that the assay was carried out in the linear range.
Typical AKR1C3 concentrations were in the region of 1 nM. The reaction was stopped by addition of 2.5 μl of a stop solution consisting of the inhibitor EM-1404 [F. Labrie et al. U.S. Pat. No. 6,541,463, 2003] (3 μM→final concentration in 7.5 μl of assay volume is 1 μM). The fluorescence of the Coumberole was then measured at 520 nm (excitation at 380 nm) using a suitable measuring instrument (Pherastar from BMG Labtechnologies). The intensity of the fluorescence was used as a measure of the amount of Coumberole formed and thus of the enzyme activity of AKR1C3. The data were normalized (enzyme reaction without inhibitor—0% inhibition; all other assay components, but no enzyme=100% inhibition).

| Structure (SMILES) | IC50 [nM] |
| --- | --- |
| O=C(c1cnn[nH]1)N1C[C@@H]2[C@H](C1)[C@@H]1CC[C@H]2N1S(=O)(=O)c1ccccc1C(F)(F)F [Example 1, 1H-1,2,3-triazol-5-yl[(3aR,4S,7R,7aS)-8-{[2-(trifluoromethyl)phenyl]sulfonyl}octahydro-2H-4,7-epiminoisoindol-2-yl]methanone] | 2 |
| O=C(c1c[nH]nn1)N1C[C@@H]2[C@H](C1)[C@@H]1CC[C@H]2N1S(=O)(=O)c1cccc(C(F)(F)F)c1 [Example 2, 1H-1,2,3-triazol-4-yl[(3aR,4S,7R,7aS)-8-{[3-(trifluoromethyl)phenyl]sulfonyl}octahydro-2H-4,7-epiminoisoindol-2-yl]methanone] | 61 |
| O=C(c1c[nH]nn1)N1C[C@@H]2[C@H](C1)[C@@H]1CC[C@H]2N1S(=O)(=O)c1cccc(Cl)c1 [Example 3, {(3aR,4S,7R,7aS)-8-[(3-chlorophenyl)sulfonyl]octahydro-2H-4,7-epiminoisoindol-2-yl}(1H-1,2,3-triazol-4-yl)methanone] | 20 |
| O=C(c1c[nH]nn1)N1C[C@@H]2[C@H](C1)[C@@H]1CC[C@H]2N1S(=O)(=O)c1cc(Cl)cc(Cl)c1 [Example 4, {(3aR,4S,7R,7aS)-8-[(3,5-dichlorophenyl)sulfonyl]octahydro-2H-4,7-epiminoisoindol-2-yl}(1H-1,2,3-triazol-4-yl)methanone] | 44 |
| O=C(c1c[nH]nn1)N1C[C@@H]2[C@H](C1)[C@@H]1CC[C@H]2N1S(=O)(=O)c1cccc(F)c1 [Example 5, {(3aR,4S,7R,7aS)-8-[(3-fluorophenyl)sulfonyl]octahydro-2H-4,7-epiminoisoindol-2-yl}(1H-1,2,3-triazol-4-yl)methanone] | 26 |
| O=C(c1c[nH]nn1)N1C[C@@H]2[C@H](C1)[C@@H]1CC[C@H]2N1S(=O)(=O)c1cccc(Cl)c1F [Example 6, {(3aR,4S,7R,7aS)-8-[(3-chloro-2-fluorophenyl)sulfonyl]octahydro-2H-4,7-epiminoisoindol-2-yl}(1H-1,2,3-triazol-4-yl)methanone] | 31 |
| O=C(c1c[nH]nn1)N1C[C@@H]2[C@H](C1)[C@@H]1CC[C@H]2N1S(=O)(=O)c1cc(F)cc(F)c1 [Example 7, {(3aR,4S,7R,7aS)-8-[(3,5-difluorophenyl)sulfonyl]octahydro-2H-4,7-epiminoisoindol-2-yl}(1H-1,2,3-triazol-4-yl)methanone] | 74 |
| O=C(c1c[nH]nn1)N1C[C@@H]2[C@H](C1)[C@@H]1CC[C@H]2N1S(=O)(=O)c1ccccc1Cl [Example 8, {(3aR,4S,7R,7aS)-8-[(2-chorophenyl)sulfonyl]octahydro-2H-4,7-epiminoisoindol-2-yl}(1H-1,2,3-triazol-4-yl)methanone] | 7 |
| O=C(c1c[nH]nn1)N1[C@@H]2CC[C@H]1[C@H]1CN(S(=O)(=O)c3ccccc3Cl)C[C@H]12 [Example 9, {(3aR,4S,7R,7aS)-2-[(2-chlorophenyl)sulfonyl]octahydro-1H-4,7-epiminoisoindol-8-yl}(1H-1,2,3-triazol-4-yl)methanone] | 4 |
| O=C(c1c[nH]nn1)N1[C@@H]2CC[C@H]1[C@H]1CN(S(=O)(=O)c3cccc(S(F)(F)(F)(F)F)c3)C[C@H]12 [Example 10, [(3aR,4S,7R,7aS)-2-{[3-(pentafluoro-λ^6-sulfanyl)phenyl]sulfonyl}octahydro-1H-4,7-epiminoisoindol-8-yl](1H-1,2,3-triazol-4-yl)methanone] | 121 |
| O=C(c1c[nH]nn1)N1C[C@@H]2[C@H](C1)[C@@H]1CC[C@H]2N1S(=O)(=O)c1cccc(S(F)(F)(F)(F)F)c1 [Example 11, [(3aR,4S,7R,7aS)-8-{[3-(pentafluoro-λ^6-sulfanyl)phenyl]sulfonyl}octahydro-2H-4,7-epiminoisoindol-2-yl](1H-1,2,3-triazol-4-yl)methanone] | 69 |
| O=C(c1c[nH]nn1)N1C[C@@H]2[C@H](C1)[C@@H]1CC[C@H]2N1S(=O)(=O)c1c(F)cccc1F [Example 12, {(3aR,4S,7R,7aS)-8-[(2,6-difluorophenyl)sulfonyl]octahydro-2H-4,7-epiminoisoindol-2-yl}(1H-1,2,3-triazol-4-yl)methanone] | 43 |
| O=C(c1c[nH]nn1)N1C[C@@H]2[C@H](C1)[C@@H]1CC[C@H]2N1S(=O)(=O)c1ccc(F)cc1F [Example 13, {(3aR,4S,7R,7aS)-8-[(2,4-difluorophenyl)sulfonyl]octahydro-2H-4,7-epiminoisoindol-2-yl}(1H-1,2,3-triazol-4-yl)methanone] | 102 |
| O=C(c1c[nH]nn1)N1C[C@@H]2[C@H](C1)[C@@H]1CC[C@H]2N1S(=O)(=O)c1ccccc1F [Example 14, {(3aR,4S,7R,7aS)-8-[(2-fluorophenyl)sulfonyl]octahydro-2H-4,7-epiminoisoindol-2-yl}(1H-1,2,3-triazol-4-yl)methanone] | 24 |
| COc1ccccc1S(=O)(=O)N1[C@@H]2CC[C@H]1[C@H]1CN(C(=O)c3c[nH]nn3)C[C@H]12 [Example 15, {(3aR,4S,7R,7aS)-8-[(2-methoxyphenyl)sulfonyl]octahydro-2H-4,7-epiminoisoindol-2-yl}(1H-1,2,3-triazol-4-yl)methanone] | 45 |
| Cc1ccccc1S(=O)(=O)N1[C@@H]2CC[C@H]1[C@H]1CN(C(=O)c3c[nH]nn3)C[C@H]12 [Example 16, {(3aR,4S,7R,7aS)-8-[(2-methylphenyl)sulfonyl]octahydro-2H-4,7-epiminoisoindol-2-yl}(1H-1,2,3-triazol-4-yl)methanone] | 5 |
| O=C(c1c[nH]nn1)N1C[C@@H]2[C@H](C1)[C@@H]1CC[C@H]2N1S(=O)(=O)c1cccc(Cl)c1C(F)(F)F [Example 17, [(3aR,4S,7R,7aS)-8-{[3-chloro-2-(trifluoromethyl)phenyl]sulfonyl}octahydro-2H-4,7-epiminoisoindol-2-yl](1H-1,2,3-triazol-4-yl)methanone] | 51 |
| O=C(c1c[nH]nn1)N1C[C@@H]2[C@H](C1)[C@@H]1CC[C@H]2N1S(=O)(=O)c1cc(F)ccc1F [Example 18, {(3aR,4S,7R,7aS)-8-[(2,5-difluorophenyl)sulfonyl]octahydro-2H-4,7-epiminoisoindol-2-yl}(1H-1,2,3-triazol-4-yl)methanone] | 19 |
| O=C(c1cnn[nH]1)N1C[C@@H]2[C@H](C1)[C@H]1CC[C@@H]2N1S(=O)(=O)c1ccccc1 [Example 20, [(3aR,4R,7S,7aS)-8-(phenylsulfonyl)octahydro-2H-4,7-epiminoisoindol-2-yl](1H-1,2,3-triazol-5-yl)methanone] | 45 |
| Cc1ccc(S(=O)(=O)N2[C@@H]3CC[C@H]2[C@H]2CN(C(=O)c4cnn[nH]4)C[C@H]23)cc1 [Example 21, {(3aR,4S,7R,7aS)-8-[(4-methylphenyl)sulfonyl]octahydro-2H-4,7-epiminoisoindol-2-yl}(1H-1,2,3-triazol-5-yl)methanone] | 327 |
| O=C(c1cnn[nH]1)N1C[C@@H]2[C@H](C1)[C@@H]1CC[C@H]2N1S(=O)(=O)c1ccc(F)cc1 [Example 22, {(3aR,4S,7R,7aS)-8-[(4-fluorophenyl)sulfonyl]octahydro-2H-4,7-epiminoisoindol-2-yl}(1H-1,2,3-triazol-5-yl)methanone] | 113 |
